Molecules are shown by their SMILES.

The experiment deals with collagen 1. The experiment is described as follows: WI-38 collagen 1 inhibition assay (anti-Collagen I immunofluorescence).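 Also: minus sign means inactive.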 Format: cell-based. As to conditions: cellular EC50, WI-38 human lung fibroblasts, values are LogEC50 classes. As for the experimental part: WI-38 cells (ATCC® CCL-75™) were maintained in MEM EAGLE (NEAA) W. GLUTAMIN (Biological Industries, Cat. 06-1040-15-1A) containing 10% fetal bovine serum (FBS) and 1% Penicillin-Streptomycin Solution. To synchronize the cells (cell cycle synchronization) prior to induction of collagen synthesis, the cells were starved using DMEM-low glucose supplemented with 0.25% FBS for two hours and then without FBS for 24 hours. To induce collagen synthesis, the cells were treated with a collagen induction cocktail for the indicated time. Compounds were added with induction.
Cells in 96-well or 384-well plates were fixed for 20 min in 4% paraformaldehyde (PFA, ENCO, Cat. sc-281692). Following two washes with 1×PBS, cells were treated with hydrogen peroxide (Acros, Cat: 7722-84-1) for 10 minutes and then washed twice with 1×PBS. Cells were then incubated over-night at 4° C. with Anti-Collagen I (Sigma-Aldrich, Cat: C 2456) antibody and washed three times with 1×PBS. Cell were then incubated with a suitable secondary fluorescently-tagged antibody and nuclei stained with DAPI, for 1 hour, and then washed 3 times with 1×PBS.
Cell images were taken with Operetta (Perkin Elmer, USA), a wide-field fluorescence microscope at 20× magnification. After acquisition, the images were transferred to Columbus software (Perkin-Elmer) for image analysis. In Columbus, cells were identified by their nucleus, using the “Find Nuceli” module and cytoplasm was detected based on the secondary antibody channel. Subsequently, the fluorescent signal was enumerated in the identified cell region. Data was exported to a data analysis and visualization software, Tibco Spotfire, USA.

As to `Cc1ncnc(N2CCN(Cc3nc4ccc(C(F)(F)F)cc4[nH]3)CC2)c1C` [Compound 201, 2-((4-(5,6-dimethylpyrimidin-4-yl)piperazin-1-yl)methyl)-6-(trifluoromethyl)-1H-benzo[d]imidazole], the “COL1 Efficacy (LogEC50)” value is recorded as “+++ (+++: <−6)”. Next, `Cc1ncnc(N2CCN(Cc3cc4ccccc4[nH]3)CC2)c1C` [Compound 202, 2-((4-(5,6-dimethylpyrimidin-4-yl)piperazin-1-yl)methyl)-1H-indole]: “+++ (+++: <−6)”; `FC(F)(F)c1ccc2nc(CN3CCN(c4ccncn4)CC3)[nH]c2c1` [Compound 203, 2-((4-(pyrimidin-4-yl)piperazin-1-yl)methyl)-6-(trifluoromethyl)-1H-benzo[d]imidazole]: “++ (++: −5 to −6)”. With `FC(F)(F)c1ccc2nc(CN3CCN(c4ccncc4)CC3)[nH]c2c1` [Compound 209, 2-((4-(pyridin-4-yl)piperazin-1-yl)methyl)-6-(trifluoromethyl)-1H-benzo[d]imidazole], the “COL1 Efficacy (LogEC50)” value is “+ (+: >−5)”.

Consider `Cc1ncnc(N2CCN(Cc3cc4cc(Cl)ccc4[nH]3)CC2)c1C` [Compound 210, 5-chloro-2-((4-(5,6-dimethylpyrimidin-4-yl)piperazin-1-yl)methyl)-1H-indole], for which the “COL1 Efficacy (LogEC50)” value is “+++ (+++: <−6)”. The entry for `CCc1cncnc1N1CCN(Cc2nc3ccc(Cl)cc3[nH]2)CC1` [Compound 211, 6-chloro-2-((4-(5-ethylpyrimidin-4-yl)piperazin-1-yl)methyl)-1H-benzo[d]imidazole] is “+++ (+++: <−6)”. Next, `c1ccc2[nH]c(CN3CCN(c4ccncc4)CC3)cc2c1` [Compound 212, 2-((4-(pyridin-4-yl)piperazin-1-yl)methyl)-1H-indole]: “+++ (+++: <−6)”; `c1ccc2[nH]c(CN3CCN(c4ccncn4)CC3)cc2c1` [Compound 213, 2-((4-(pyrimidin-4-yl)piperazin-1-yl)methyl)-1H-indole]: “+++ (+++: <−6)”; `c1ccc(N2CCN(Cc3cc4ccccc4[nH]3)CC2)nc1` [Compound 216, 2-[[4-(2-pyridyl)piperazin-1-yl]methyl]-1H-indole]: “+ (+: >−5)”. The entry for `c1cncc(N2CCN(Cc3cc4ccccc4[nH]3)CC2)c1` [Compound 217, 2-[[4-(3-pyridyl)piperazin-1-yl]methyl]-1H-indole] is “+ (+: >−5)”.

On to `c1cncc(CN2CCN(Cc3cc4ccccc4[nH]3)CC2)c1` [Compound 218, 2-[[4-(3-pyridylmethyl)piperazin-1-yl]methyl]-1H-indole], for which the “COL1 Efficacy (LogEC50)” value is “+ (+: >−5)”. Next, `Cc1cc(N2CCN(Cc3cc4ccccc4[nH]3)CC2)ccn1` [Compound 221, 2-[[4-(2-methyl-4-pyridyl)piperazin-1-yl]methyl]-1H-indole]: “−”; `Cc1cnccc1N1CCN(Cc2cc3ccccc3[nH]2)CC1` [Compound 222, 2-[[4-(3-methyl-4-pyridyl)piperazin-1-yl]methyl]-1H-indole]: “++ (++: −5 to −6)”; `FC(F)(F)c1cccnc1N1CCN(Cc2cc3ccccc3[nH]2)CC1` [Compound 225, 2-[[4-[3-(trifluoromethyl)-2-pyridyl]piperazin-1-yl]methyl]-1H-indole]: “+ (+: >−5)”.

Consider `CN1CCC(N2CCN(Cc3cc4ccccc4[nH]3)CC2)CC1` [Compound 227, 2-[[4-(1-methyl-4-piperidyl)piperazin-1-yl]methyl]-1H-indole], for which the “COL1 Efficacy (LogEC50)” value was “−”. Next, `c1ccc2[nH]c(CN3CCN(c4nccs4)CC3)cc2c1` [Compound 229, 2-[4-(1H-indol-2-ylmethyl)piperazin-1-yl]thiazole]: “++ (++: −5 to −6)”; `CCCN1CCN(Cc2cc3ccccc3[nH]2)CC1` [Compound 230, 2-[(4-propylpiperazin-1-yl)methyl]-1H-indole]: “+ (+: >−5)”. Next, `O=C(c1cccnc1)N1CCN(Cc2cc3ccccc3[nH]2)CC1` [Compound 231, [4-(1H-indol-2-ylmethyl)piperazin-1-yl]-(3-pyridyl)methanone]: “−”. Regarding `O=C(C1CCCCC1)N1CCN(Cc2cc3ccccc3[nH]2)CC1` [Compound 232, Cyclohexyl-[4-(1H-indol-2-ylmethyl)piperazin-1-yl]methanone], the “COL1 Efficacy (LogEC50)” value is listed as “++ (++: −5 to −6)”. Next, `c1ccc2[nH]c(CN3CCN(C4CCCC4)CC3)cc2c1` [Compound 233, 2-[(4-cyclopentylpiperazin-1-yl)methyl]-1H-indole]: “+ (+: >−5)”; `c1ccc2[nH]c(CN3CCN(c4nccc5occc45)CC3)cc2c1` [Compound 235, 4-[4-(1H-indol-2-ylmethyl)piperazin-1-yl]furo[3,2-c]pyridine]: “+ (+: >−5)”; `c1ccc2[nH]c(CN3CCN(c4ccnc5ccccc45)CC3)cc2c1` [Compound 236, 4-[4-(1H-indol-2-ylmethyl)piperazin-1-yl]quinolone]: “++ (++: −5 to −6)”.

As to `c1ccc2nc(N3CCN(Cc4cc5ccccc5[nH]4)CC3)ccc2c1` [Compound 237, 2-[4-(1H-indol-2-ylmethyl)piperazin-1-yl]quinolone], the “COL1 Efficacy (LogEC50)” value is “++ (++: −5 to −6)”. `Cc1cccnc1N1CCN(Cc2cc3ccccc3[nH]2)CC1` [Compound 238, 2-[[4-(3-methyl-2-pyridyl)piperazin-1-yl]methyl]-1H-indole]: the “COL1 Efficacy (LogEC50)” value is recorded as “++ (++: −5 to −6)”. Take `CC(C)CC(=O)N1CCN(Cc2cc3ccccc3[nH]2)CC1` [Compound 239, 1-[4-(1H-indol-2-ylmethyl)piperazin-1-yl]-3-methyl-butan-1-one]: the “COL1 Efficacy (LogEC50)” value is listed as “++ (++: −5 to −6)”. For the compound `c1ccc2[nH]c(CN3CCN(c4ccc5cn[nH]c5c4)CC3)cc2c1` [Compound 286, 6-(4-((1H-indol-2-yl)methyl)piperazin-1-yl)-1H-indazole], the “COL1 Efficacy (LogEC50)” value was “−”. Next, `FC(F)(F)c1ccc2nc(CN3CCN(c4ccccc4)CC3)[nH]c2c1` [compound 200]: “−”. The entry for `Cc1ncnc(N2CCN(Cc3[nH]c4ccc(Cl)cc4c3C)CC2)c1C` [compound 204] is “++ (++: −5 to −6)”; for `Cc1cc2c(N3CCN(Cc4nc5ccccc5[nH]4)CC3)ncnc2s1` [compound 205] it is “++ (++: −5 to −6)”; for `c1ccc(-c2nc3c(c(N4CCN(Cc5cc6ccccc6[nH]5)CC4)n2)CCC3)cc1` [compound 207] it is “++ (++: −5 to −6)”. Regarding `c1ccc2[nH]c(CN3CCN(c4cc(-n5cccn5)ncn4)CC3)nc2c1` [compound 208], the “COL1 Efficacy (LogEC50)” value is on record as “++ (++: −5 to −6)”.

Consider `CCc1cncnc1N1CCN(Cc2nc3ccc(C(F)(F)F)cc3[nH]2)CC1` [compound 214], for which the “COL1 Efficacy (LogEC50)” value is reported as “+++ (+++: <−6)”. Regarding `Brc1ccc2[nH]c(CN3CCN(c4ccncc4)CC3)cc2c1` [compound 215, 5-bromo-2-[[4-(4-pyridyl)piperazin-1-yl]methyl]-1H-indole], the “COL1 Efficacy (LogEC50)” value is reported as “−”. The entry for `c1ccc(-c2ccc3[nH]c(CN4CCN(c5ccncc5)CC4)cc3c2)cc1` [compound 219, 5-phenyl-2-[[4-(4-pyridyl)piperazin-1-yl]methyl]-1H-indole] is “−”; for `c1cncc(-c2ccc3[nH]c(CN4CCN(c5ccncc5)CC4)cc3c2)c1` [compound 220, 5-(3-pyridyl)-2-[[4-(4-pyridyl)piperazin-1-yl]methyl]-1H-indole] it is “−”.

For the compound `COc1ccc2[nH]c(CN3CCN(c4ccncc4)CC3)cc2c1` [compound 223, 5-methoxy-2-[[4-(4-pyridyl)piperazin-1-yl]methyl]-1H-indole], the “COL1 Efficacy (LogEC50)” value is on record as “−”. Next, `Brc1ccc2cc(CN3CCN(c4ccncc4)CC3)[nH]c2c1` [compound 224, 6-bromo-2-[[4-(4-pyridyl)piperazin-1-yl]methyl]-1H-indole]: “+ (+: >−5)”.

In the case of `FC(F)(F)c1ccc2[nH]c(CN3CCN(c4ccncc4)CC3)cc2c1` [compound 226, 2-[[4-(4-pyridyl)piperazin-1-yl]methyl]-5-(trifluoromethyl)-1H-indole], the “COL1 Efficacy (LogEC50)” value is “+ (+: >−5)”.

`COc1ccc2cc(CN3CCN(c4ccncc4)CC3)[nH]c2c1` [compound 228, 6-methoxy-2-[[4-(4-pyridyl)piperazin-1-yl]methyl]-1H-indole]: the “COL1 Efficacy (LogEC50)” value is “+ (+: >−5)”. Turning to `c1ccc2[nH]c(CN3CCN(c4nccc5ccccc45)CC3)cc2c1` [compound 234], the “COL1 Efficacy (LogEC50)” value is on record as “+ (+: >−5)”. The entry for `Clc1ccc2cc(CN3CCN(c4ccncc4)CC3)[nH]c2c1` [compound 240, 6-chloro-2-[[4-(4-pyridyl)piperazin-1-yl]methyl]-1H-indole] is “+ (+: >−5)”; for `c1ccc(N2CCN(Cc3cc4ccccc4[nH]3)CC2)cc1` [compound 241, 2-[(4-phenylpiperazin-1-yl)methyl]-1H-indole] it is “++ (++: −5 to −6)”.

The values are drawn from patent US20230150980A1, “COLLAGEN 1 TRANSLATION INHIBITORS AND METHODS OF USE THEREOF” (Anima Biotech Inc., priority 2020, published 2023).
